Measured values taken from ChEMBL document CHEMBL1158896, “Isolation and structure of the cytotoxic cycloheptapeptide phakellistatin 13” (2003).
The source made the active and inactive calls. The calls are words filed in the database; no cut-off is given here. Where a SMILES comes first, the peptide text is derived from it.

Assays:
[1] = Cytotoxicity against human Bel7404 cells; type: functional; details: BEL-7404, read-out: ED50 (the source's name)
HL-60 = assay: Cytotoxicity against human HL60 cells; type: functional, cell-based

SMILES: CC(C)C[C@@H]1NC(=O)[C@H](Cc2c[nH]c3ccccc23)NC(=O)[C@@H]2CCCN2C(=O)[C@H](Cc2ccccc2)NC(=O)CNC(=O)[C@@H]2CCCN2C(=O)[C@H]([C@@H](C)O)NC1=O [PHAKELLISTATIN 13] (cyclo(FPWLTPG))
- EC50 [1]: < 0.01 µg/mL

SMILES: CC(C)C[C@@H]1NC(=O)[C@H]([C@@H](C)O)NC(=O)[C@@H]2CCCN2C(=O)CNC(=O)[C@H](Cc2ccccc2)NC(=O)[C@@H]2CCCN2C(=O)[C@H](Cc2c[nH]c3ccccc23)NC1=O (cyclo(FGPTLWP))
- Activity (HL-60): inactive
